Results: US8247377B2, “Non-steroidal glucocorticoid inhibitors and their use in treating inflammation, allergy and auto-immune conditions” (Glaxo Group Limited, priority 2006, dated 2012)

Experiments:
progesterone receptor = target: T1, progesterone receptor (Homo sapiens, UniProt P06401); assay: Assay for progesterone receptor activity (CV-1 cells, PRb-BacMam/MMTV-BacMam); type: cell-based; conditions: CV-1 cells transduced with PRb-BacMam and MMTV-BacMam; read-out: pEC50 progesterone receptor activity (converted)
T1 construct: expressed in transfected cells; host or cells: CV-1 cells transduced with PRb-BacMam and MMTV-BacMam
T1 sequence (P06401 1-933): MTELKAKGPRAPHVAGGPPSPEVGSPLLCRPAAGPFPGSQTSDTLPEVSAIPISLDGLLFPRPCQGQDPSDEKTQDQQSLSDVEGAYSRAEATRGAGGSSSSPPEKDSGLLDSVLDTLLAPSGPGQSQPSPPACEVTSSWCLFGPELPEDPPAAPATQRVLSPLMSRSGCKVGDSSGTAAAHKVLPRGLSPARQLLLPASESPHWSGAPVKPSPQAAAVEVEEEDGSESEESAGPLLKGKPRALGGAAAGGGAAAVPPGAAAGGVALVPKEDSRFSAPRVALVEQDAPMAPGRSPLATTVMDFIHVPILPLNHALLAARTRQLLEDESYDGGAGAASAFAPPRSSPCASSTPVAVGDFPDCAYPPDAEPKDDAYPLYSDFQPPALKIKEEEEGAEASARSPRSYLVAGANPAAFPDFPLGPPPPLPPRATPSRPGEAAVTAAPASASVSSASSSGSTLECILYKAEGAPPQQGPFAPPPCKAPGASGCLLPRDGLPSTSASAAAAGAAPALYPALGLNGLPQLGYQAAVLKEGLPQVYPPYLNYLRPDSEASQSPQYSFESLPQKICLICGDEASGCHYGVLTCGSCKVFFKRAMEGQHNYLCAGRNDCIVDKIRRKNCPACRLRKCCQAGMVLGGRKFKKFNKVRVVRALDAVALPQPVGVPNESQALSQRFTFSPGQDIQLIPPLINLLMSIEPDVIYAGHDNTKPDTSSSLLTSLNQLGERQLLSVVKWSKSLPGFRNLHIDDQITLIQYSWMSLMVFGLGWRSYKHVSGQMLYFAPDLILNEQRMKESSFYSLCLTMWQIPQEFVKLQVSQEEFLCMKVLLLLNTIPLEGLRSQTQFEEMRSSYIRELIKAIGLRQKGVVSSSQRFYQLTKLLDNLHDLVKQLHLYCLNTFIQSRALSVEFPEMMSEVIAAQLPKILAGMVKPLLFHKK
Description: A T225 flask of CV-1 cells at a density of 80% confluency was washed with PBS, detached from the flask using 0.25% trypsin and counted using a Sysmex KX-21N. Cells were diluted in DMEM containing 10% Hyclone, 2 mM L-Glutamate and 1% Pen/Strep at 140 cells/μl and transduced with 10% PRb-BacMam and 10% MMTV-BacMam. […] of suspension cells were dispensed to each well of white Nunc 384-well plates, containing compounds at the required concentration. After 24 h 10 μl of Steadylite were added to each well of the plates. Plates were incubated in the dark for 10 min before reading them on a Viewlux reader. Dose response curves were constructed from which pEC50 values were estimated.

glucocorticoid receptor = target: T2, glucocorticoid receptor (Homo sapiens, UniProt P04150); assay: Glucocorticoid receptor binding assay (fluorescence polarisation); conditions: competition with Alexa 555 fluorescently-labelled dexamethasone derivative, full length glucocorticoid receptor; read-out: glucocorticoid binding pIC50 (converted)
T2 construct: a partially purified full length glucocorticoid receptor
T2 sequence (P04150 1-777): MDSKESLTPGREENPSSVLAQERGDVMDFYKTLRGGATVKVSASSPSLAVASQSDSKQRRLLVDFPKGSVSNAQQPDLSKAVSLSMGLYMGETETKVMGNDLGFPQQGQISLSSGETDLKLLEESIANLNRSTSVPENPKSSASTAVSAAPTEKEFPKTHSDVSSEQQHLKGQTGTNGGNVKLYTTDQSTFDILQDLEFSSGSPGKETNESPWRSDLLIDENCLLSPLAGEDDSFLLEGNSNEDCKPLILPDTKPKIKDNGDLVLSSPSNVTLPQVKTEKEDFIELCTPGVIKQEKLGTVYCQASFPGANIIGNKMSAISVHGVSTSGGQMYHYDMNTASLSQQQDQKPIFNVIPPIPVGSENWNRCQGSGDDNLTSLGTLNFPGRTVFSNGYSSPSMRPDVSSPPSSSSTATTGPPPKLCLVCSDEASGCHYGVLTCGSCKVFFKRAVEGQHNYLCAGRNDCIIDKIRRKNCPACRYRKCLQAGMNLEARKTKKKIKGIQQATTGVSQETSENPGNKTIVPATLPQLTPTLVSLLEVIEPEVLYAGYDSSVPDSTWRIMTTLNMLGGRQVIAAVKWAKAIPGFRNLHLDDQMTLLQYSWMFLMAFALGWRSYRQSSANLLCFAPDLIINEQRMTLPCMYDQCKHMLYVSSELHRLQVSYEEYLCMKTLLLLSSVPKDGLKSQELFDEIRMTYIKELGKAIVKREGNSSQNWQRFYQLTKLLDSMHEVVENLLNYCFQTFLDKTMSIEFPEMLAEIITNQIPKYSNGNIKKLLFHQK
Description: Compounds were solvated and diluted in DMSO, and transferred directly into assay plates. Fluorescent dexamethasone and a partially purified full length glucocorticoid receptor were added to the plates, together with buffer components to stabilise the GR protein and incubated at room temperature for 2 hrs in the dark. Binding of each compound was assessed by analysing the displacement of fluorescent ligand by measuring the decrease in fluorescence polarisation signal from the mixture. Dose response curves were constructed from which pIC50 values were estimated.

NFκB = NFκB agonist assay in A549 SPAP cells; type: cell-based; conditions: Homo sapiens; A549 SPAP cells, TNFα 3.2 ng/ml; read-out: pIC50 for the NFkB assay (converted)
Source text: Human lung carcinoma A549 cell line (ECACC No. 86012804) has been stably transfected in house with a plasmid containing an ELAM promoter sequence that has a NFκB response element within it. Stimulation of the cell line with TNFα results in intracellular signal transduction and ultimately translocation of NFκB into the nucleus. This activates the inserted DNA sequence resulting in transcription of the integrated SPAP gene, which is quantified using a colorimetric assay. […] The stably transfected cell line was grown as a monolayer in DMEM supplemented with FCS-HI (10%), Non-essential amino acids (1%), L-Glutamine (2 mM), Pen/Strep (1%) and Geneticin (50 mg/ml).
A 70% confluent T225 flask of A549 SPAP cells was harvested by centrifugation for 5 min at 200 g, resuspended in assay buffer (DMEM supplemented with 10% FCS 2×HI, 2 mM L-Glutamine, 1% Pen/Strep and Non essential amino acids) and diluted to 0.16×10^6/ml. 60 μl of cell solution was dispensed to each well of clear Nunc 384-well plates, containing compound at the required concentration. Plates were incubated for 1 h at 37° C., 95% humidity, 5% CO2 before 10 μl of TNFα was added at final concentration of 3.2 ng/ml and then returned to the cell incubator for 15 h. Plates were equilibrated to room temperature for 1 h prior to the addition of 25 μl of pNPP buffer (1M Diethanolamine pH 9.8, 0.5 mM MgCl2, 0.28M NaCl, 2 mg/ml pNPP) to each well of assay plates. The plates were covered to protect the reagents from light, and then incubated at room temperature for approximately 1 hour before reading them on an Ascent using a 405 nm single filter. Dose response curves were constructed from which pIC50 values were estimated.

Row | SMILES | EC50 (progesterone receptor) [nM] | IC50 (glucocorticoid receptor) [nM] | IC50 (NFκB) [nM]
1 | Nc1c(C(=O)NCC(O)(CNC(=O)c2c(F)cccc2F)C(F)(F)F)cnn1-c1ccc(F)cc1 (racemic) [Example 6 (racemic), 5-Amino-N-[2-({[(2,6-difluorophenyl)carbonyl]amino}methyl)-3,3,3-trifluoro-2-hydroxypropyl]-1-(4-fluorophenyl)-1H-pyrazole-4-carboxamide] | > 1000 |  | 
2 | Nc1c(C(=O)NCC(O)(CNC(=O)c2c(OC(F)F)cccc2OC(F)F)C(F)(F)F)cnn1-c1ccc(F)cc1 (racemic) [Example 20 (racemic), 5-amino-N-(2-{[({2,6-bis[(difluoromethyl)oxy]phenyl}carbonyl)amino]methyl}-3,3,3-trifluoro-2-hydroxypropyl)-1-(4-fluorophenyl)-1H-pyrazole-4-carboxamide] | > 1000 | ≤ 316 | 
3 | Nc1c(C(=O)NCC(O)(CN(CCF)C(=O)c2c(OC(F)F)cccc2OC(F)F)C(F)(F)F)cnn1-c1ccc(F)cc1 (racemic) [Example 32 (racemic), 5-amino-N-(2-{[({2,6-bis[(difluoromethyl)oxy]phenyl}carbonyl)(2-fluoroethyl)amino]methyl}-3,3,3-trifluoro-2-hydroxypropyl)-1-(4-fluorophenyl)-1H-pyrazole-4-carboxamide] | > 1000 | ≤ 316 | < 1000
4 | Nc1c(C(=O)NCC(O)(CNC(=O)c2c(F)cccc2OC(F)F)C(F)(F)F)cnn1-c1ccc(F)cc1 (racemic) [Example 48 (racemic), 5-Amino-N-(2-{[({2-[(difluoromethyl)oxy]-6-fluorophenyl}carbonyl)amino]methyl}-3,3,3-trifluoro-2-hydroxypropyl)-1-(4-fluorophenyl)-1H-pyrazole-4-carboxamide] | > 1000 | ≤ 316 | < 1000
5 | CCN(CC(O)(CNC(=O)c1cnn(-c2ccc(F)cc2)c1N)C(F)(F)F)C(=O)c1c(Cl)cccc1Cl (single isomer, unassigned) [Example 2 Enantiomer 1, 5-Amino-N-(2-{[[(2,6-dichlorophenyl)carbonyl](ethyl)amino]methyl}-3,3,3-trifluoro-2-hydroxypropyl)-1-(4-fluorophenyl)-1H-pyrazole-4-carboxamide] | > 1000 | ≤ 316 | < 1000
6 | CCN(CC(O)(CNC(=O)c1cnn(-c2ccc(F)cc2)c1N)C(F)(F)F)C(=O)c1c(F)cccc1Cl (single isomer, unassigned) [Example 4 Enantiomer 1, 5-Amino-N-(2-{[[(2-chloro-6-fluorophenyl)carbonyl](ethyl)amino]methyl}-3,3,3-trifluoro-2-hydroxypropyl)-1-(4-fluorophenyl)-1H-pyrazole-4-carboxamide] | > 1000 | ≤ 316 | < 1000
7 | Nc1c(C(=O)NCC(O)(CNC(=O)c2c(F)cccc2Cl)C(F)(F)F)cnn1-c1ccc(F)cc1 (single isomer, unassigned) [Example 7 Enantiomer 1, 5-Amino-N-[2-({[(2-chloro-6-fluorophenyl)carbonyl]amino}methyl)-3,3,3-trifluoro-2-hydroxypropyl]-1-(4-fluorophenyl)-1H-pyrazole-4-carboxamide] | > 1000 |  | < 1000
8 | Nc1c(C(=O)NCC(O)(CNC(=O)c2c(C(F)(F)F)cccc2C(F)(F)F)C(F)(F)F)cnn1-c1ccc(F)cc1 (single isomer, unassigned) [Example 15 Enantiomer 2, 5-amino-N-{2-[({[2,6-bis(trifluoromethyl)phenyl]carbonyl}amino)methyl]-3,3,3-trifluoro-2-hydroxypropyl}-1-(4-fluorophenyl)-1H-pyrazole-4-carboxamide] |  |  | < 1000
